Experimental data from patent US5385911A, “Anti-herpes castanospermine esters” (priority 1990, dated 1995).

Columns and labels:
HSV2 strain HG52 = assay: plaque-reduction assay, HSV2 strain HG52 in MRC5 cells; format: cell-based, HSV2 strain HG52; human embryonic fibroblast cells (MRC5); settings: Human alphaherpesvirus 2, 72 h, 3 days incubation, read-out: ED50 HSVII
Procedure: (§1) Antiviral activity of the compounds of formula (1) can assessed by the plaque-reduction assay as previously described by Tyms et al., J. Antimicrobial Chemotherapy, 8, 65-72 (1981). Briefly, human embryonic fibroblast cells (MRC5) were cultured in 24-well tissue culture trays in the presence of Eagles' minimum essential medium (MEM) supplemented with 10% fetal calf serum. When cell monolayers were semi-confluent, they were inoculated with 30-50 plaque-forming units of HSV2 strain HG52 or HSV1 strain 17[…]. General Virology, 55, 315-331 (1981). […] After 3 days incubation, cells were fixed in 10% formalin in saline and subsequently stained with 0.3% methylene blue. Dose-responselines were plotted from the mean number of plaques present versus the log of the concentration of the compound. The 50% effective dose (ED50) was computed after linear regression analysis.

HSV1 and HSV2 = settings: cited from earlier work
[1] = at high dosage; cited from earlier work
HSV1 strain 17i = assay: plaque-reduction assay, HSV1 strain 17i in MRC5 cells; format: cell-based, HSV1 strain 17i; human embryonic fibroblast cells (MRC5); settings: Human alphaherpesvirus 1, 72 h, 3 days incubation, read-out: ED50 HSVI
Procedure: as §1

HIV glycoproteins = settings: cited from earlier work; for formation of syncytia: HIV
[2] = tested on: viral protein glycosylation; settings: cited from earlier work
HSV = settings: cited from earlier work
Herpes infections = settings: in man; cited from earlier work

Compound: Cc1ccc(C(=O)O[C@H]2CN3CC[C@H](O)[C@@H]3[C@@H](O)[C@@H]2O)cc1 [MDL 29,204]
- EC50 (HSV2 strain HG52): ≤ 20 µg/mL

Compound: O=C(O[C@H]1CN2CC[C@H](O)[C@@H]2[C@@H](O)[C@@H]1O)c1ccccc1 [MDL 43,305, [1S-(1α,6β,7α,8β,8aβ)]-octahydro-1,6,7,8-indolizinetetrol 6-benzoate]
- EC50 (HSV2 strain HG52): ≤ 20 µg/mL

Compound: Nc1nc2c(ncn2COCCO)c(=O)[nH]1 [Acyclovir]
- antiviral effect (HSV1 and HSV2): potent antiviral effect
- solubility [1]: Poor solubility at high dosage

Compound: CCCC(=O)O[C@H]1CN2CC[C@H](O)[C@@H]2[C@@H](O)[C@@H]1O [MDL 28,574, [1S-(1α,6β,7α,8β,8aβ)]-octahydro-1,6,7,8-indolizinetetrol 6-butanoate]
- EC50 (HSV1 strain 17i): ≤ 75 µg/mL
- EC50 (HSV2 strain HG52): ≤ 22 µg/mL

Compound: CCC(O)[C@H](N)C(=O)O (stereo partly drawn) [β-hydroxy-norvaline]
- formation of syncytia (HIV glycoproteins): block the formation of syncytia
- expression of HIV glycoproteins (HIV glycoproteins): inhibit expression of HIV glycoproteins

Compound: CCC=CCC(=O)O[C@H]1CN2CC[C@H](O)[C@@H]2[C@@H](O)[C@@H]1O [MDL 29,513, [1S-(1α,6β,7α,8β,8aβ)]-octahydro-1,6,7,8-indolizinetetrol 6-(3-hexenoate)]
- EC50 (HSV1 strain 17i): ≤ 5 µg/mL
- EC50 (HSV2 strain HG52): ≤ 5 µg/mL

Compound: 2-deoxy-2-fluoroglucose
- inhibition of viral protein glycosylation [2]: inhibit viral protein glycosylation by a different mechanism

Compound: O=CC[C@@H](O)[C@H](O)[C@H](O)CO [2-deoxy-D-glucose]
- formation of syncytia (HIV glycoproteins): block the formation of syncytia
- expression of HIV glycoproteins (HIV glycoproteins): inhibit expression of HIV glycoproteins
- activity against HSV (HSV): active against HSV
- efficacy in the treatment of Herpes infections (Herpes infections): has shown efficacy in the treatment of Herpes infections in man

Compound: CCCCCCCC(=O)O[C@H]1CN2CC[C@H](O)[C@@H]2[C@@H](O)[C@@H]1O [MDL 29,797, [1S-(1α,6β,7α,8β,8aβ)]-octahydro-1,6,7,8-indolizinetetrol 6-octanoate]
- EC50 (HSV1 strain 17i): ≤ 10 µg/mL
- EC50 (HSV2 strain HG52): ≤ 5 µg/mL

Compound: O=CC[C@@H](O)[C@H](O)[C@H](O)CO [2-deoxyglucose]
- inhibition of viral protein glycosylation [2]: inhibit viral protein glycosylation by a different mechanism
